Measurements from patent publication US9572890B2, “Oral formulations of mitochondrially-targeted antioxidants and their preparation and use” (MITOTECH SA, priority 2011, dated 2017).

How the values were obtained:
[1] = Stability in dark plastic or glass vials (light sensitivity); type: physicochemical
Text: Accordingly, one of the ways to further improve or increase stability of SkQ liquid compositions during storage and transportation is to protect it from light.

[2] = Accelerated decay experiment of SkQ1H2/ascorbic acid powder; type: physicochemical; details: powder 95% ascorbic acid and 5% SkQ1H2
Description: SkQ1H2, a reduced quinole form of SkQ, was prepared as follows: 10 ml SkQ1H2 solution (with concentration 1 mg/ml) in ethanol was thoroughly mixed with 200 mg ascorbic acid and then vacuum dried.

db/db mice = assay: Hepatic TBA-reactive substance content (MDA) in db/db diabetic mice; type: in vivo; details: SkQ1 in 20% glycerol, 250 nmol/kg per day orally for 12 weeks
Description: SkQ1 in 20% glycerol, as described below in Example 8 (250 nmol/kg per day) was orally administered to 10 to 12 week old homozygous db/db mice (n=8), while vehicle db/db (n=8) and non-diabetic control heterozygous db/++ (n=5) mice for 12 weeks. The hepatic TBA-reactive substance content (MDA) was determined by assay according to the method of Mihara et al. ((1978) Anal. Biochem., 86:271-278).

LPS-induced septic shock = assay: LPS/D-GalN-induced septic shock, survival; type: in vivo, BALB/c mice
Description: Induction of the septic shock was performed as follows: 43 male BALB/c mice with free food and water access were divided onto 4 experimental groups. Group “K” got water without drugs. Groups “SkQ 50,” “SkQ 250,” and “SkQ 1250” were daily parenterally treated with pharmaceutical form of SkQ1 in water comprising 50 nmol/kg, 250 nmol/kg, and 1250 nmol/kg accordingly. After 3 weeks of SkQ1 treatment animals were intraperitonially injected with […] LPS and 700 mg/kg D-galactosamine (D-GalN) inducing septic shock leading to death of 50% of untreated control animals (LD50 dose). Death of animals were registered after 4 d of septic shock induction.

[3] = system: collagen-induced arthritis; assay: Collagen-induced arthritis (CIA); type: in vivo, Wistar rats; details: SkQ1 in water 250 nmol/kg per day from day 14 or day 24 after collagen injection
Description: Thirty Wistar rats with free food and water access were injected with complete Freund adjuvant and 250 mg type II collagen to induce CIA. Starting from 14 d and from 24 d after injection, two groups of 10 animals in each were daily fed with pharmaceutical form of SkQ1 in water comprising 250 nmol/kg body weight per day (groups “SkQ1 from day 14” and “SkQ1 from day 24”; Group “Control” received water without drugs).

[4] = system: human endothelial cells EA.hy926; assay: TNF-α induced death of endothelial cells (MTT test); type: cell-based; details: 2 nM pre-incubation 4 d; TNF-α 0.25 to 50 ng/ml for 2 d
Description: Human endothelial cell line EA.hy926 (ATCC Collection; catalog number CRL-2922) was used as a model of vascular endothelium. This cell line is similar to primary HUVEC cell line (Edgell et al. (1983) PNAS, 80(12):3734-7; Edgell et al. (1990) In Vitro Cell Dev Biol., 26(12):1167-72) and widely used as a relevant model for inflammation studies (Riesbeck et al. (1998) Clin. Vaccine Immunol., 5:5675-682).
Accordingly, human endothelial cells EA.hy926 were pre-incubated with 0.2 nM SkQR1 or 2 nM SkQ1 solution in Dulbecco's Modified Eagle's Medium (DMEM) supplemented with 10% of fetal serum (Example 1) for 4 d. After that the cells were incubated overnight with fresh DMEM medium with 0.2% of fetal serum. The cells were incubated 2 d with TNF-α (0.25 ng/ml to 50 ng/ml) and cell death was monitored using standard MTT test (Berridge et al. (1996) Biochemica, 4:14-9). The data from this assay is shown as means±S.E. at least for 3 separate experiments.

ICAM-1 mRNA expression = ICAM-1 mRNA expression induced by TNF-α in EAhy926 cells (real-time PCR); type: cell-based, human; details: 0.2 nM for 4 d; TNF-α 0.05 ng/ml for 4 h
Text: The effects of SkQ1 on ICAM-1 mRNA expression and cytokines (IL-6, IL-8) protein secretion induced by TNF-α in EAhy926 human endothelial cells (ATCC collection; catalog number CRL-2922) were examined. TNF-α is a central proinflammatory cytokine stimulating expression of cell adhesion molecules and many inflammatory cytokines. Anti-inflammatory properties of many drugs often rely on their ability to inhibit expression of pro-inflammatory cytokines induced by TNF-α using EAhy926 endothelial cells (Edgell et al. (1983) Proc. Natl. Acad. Sci. USA, 80:3734-7; Lombardi et al. (2009) Eur. J. Cell. Biol., 88:731-42; Manea et al. (2010) Cell Tissue Res., 340:71-9).
300,000 cells were plated on 60 mm^2 culture dishes and after attachment were treated with an SkQ1 solution (0.2 nM in DMEM medium with 10% fetal serum) for 4 d, and then stimulated with TNF-α (0.05 ng/ml for 4 h for ICAM-1 or 5 ng/ml for 15 h for cytokines, respectively). ICAM-1 mRNA expression was determined by real-time PCR (Okada et al. (2005) Invest. Ophtalmol. Vis. Sci., 46:4512-8). Secretion of IL-6 and IL-8 was evaluated by ELISA (Toma et al. (2009) Biochem. Biophys. Res. Commun., 390:877-82; Volanti et al. (2002) Photochem. Photobiol., 75:36-45.) The data is shown as means±S.E. at least for 3 separate experiments.

ICAM-1 mRNA = ICAM-1 mRNA level in aortas of old mice; type: in vivo; details: 24 months old C57Black/CBA mice; SkQ1 in drinking water for 7 months
Description: As described above in Example 7A, above, the expression of ICAM-1 is elevated under many pathological vascular conditions. SkQ1 efficacy in reducing ICAM-1 expression in vivo was tested on mice. 30 hybrid male C57Black/CBA mice were divided into 3 experimental groups (10 animals in each group) at the beginning of the experiment. The group “Young mice” included mice at the age of 6 months. Groups “Old mice” and “Old mice, SkQ1” included mice at the age of 24 months. The group “Old mice, SkQ1” had free access to drinking water with 100 nM water-dissolved SkQ1 per 1 kg of body weight for 7 months. After this period, the animals were decapitated. Aortas were excised, and total RNA was isolated using […] Blood and Tissue kit (QIAGEN), reverse-transcribed into cDNA, and used for quantitative real-time PCR analysis of ICAM-1 mRNA level. For the normalization procedure the average geometry of expression levels of housekeeping genes GAPDH and RPL32 was used Data are shown as means±S.E.M.

endothelial cells = assay: TNFα-caused dysfunction of endothelial barrier (microscopy of VE-cadherin, beta-cathenin, F-actin); type: cell-based

- stability [1]: significantly increased
- SkQ1 purity ([2]; after storage for 12 d at 60° C.): 95.1%
- loss from the initial concentration of the active compound ([2]; calculated for storage for 1 year at 4° C.): approximately 3.5%
- SkQ1 purity ([2]; initial): 98.7%
SMILES: CC1=C(C)C(=O)C(CCCCCCCCCC[P+](c2ccccc2)(c2ccccc2)c2ccccc2)=CC1=O [SkQ1]
- MDA levels in the liver (db/db mice): significantly lowered
- survival of mice following LPS/D-GalN treatment (LPS-induced septic shock; SkQ1 in water 50, 250, 1250 nmol/kg daily parenterally for 3 weeks, death registered after 4 d): significantly improved
- survival, significance of the effect (LPS-induced septic shock; dose of 50 nmol/kg, p=0.03): statistically significant effect
- number of animals with apparent inflammation (increased paw volumes) [3]: reduced
- cell death compared to control without MTA [4]: greatly reduced
- expression of ICAM-1 (ICAM-1 mRNA expression): prevents excessive expression
- ICAM-1 mRNA levels in aorta of treated old mice compared to the control group (ICAM-1 mRNA): significantly lowered
- disassembling of intracellular contacts and cytoskeleton reorganization caused by TNFα (endothelial cells): prevented
